Reference: patent US3966744A, “Spin labeled compounds” (priority 1974, dated 1976)
Where “and” joins values, the source holds several entries; their conditions need not be identical. Equal entries are not always repeated. Structures can show the parent of a compound that is named as a salt. Where two headings read alike, the source gives them in different places.

Assays:
[1] = test system: supported morphine antibodies; assay: Binding of free radical labeled morphine to supported morphine antibodies (ESR); design: species or system rabbit; settings: pH 8 borate buffer, 10^-4 M label, 2 hours
[2] = Storage stability of the cocaine assay spin label (binding constant); assay type: physicochemical; settings: storage in distilled water, substantially metal ion free, carbon dioxide bubbled through
Description: The spin labeled compound employed was prepared according to Example 7.1.

dinitrophenyl antibodies = assay: Spin immunoassay with labeled dinitrophenyl hapten and dinitrophenyl antibodies (ESR); assay type: binding; settings: increasing amounts, 10^-5 M solution in water, maximum 14 μl
Description: (The antibodies were prepared according to Eisen, et al., JACS, 75, 4583 (1953) and the labeled hapten was prepared in accordance with Hsia, et al, Archives of Biochemistry and Biophysics 132, 466 (1969)). The following procedure was employed. The quantities of the two compounds were chosen by adding small portions of the haptens to the antibody solution until the ESR signal intensity began to rise sharply with addition of each portion. At this point, all the binding sites on the antibodies were occupied by the label and the addition was stopped. Increasing amounts of N-epsilon-dinitrophenyllysine were then added to the solution.
The labeled hapten was dissolved in 20 percent aq. methanol at about 1-2 × 10^-^5 M concentration. Approximately 10 μl of the antibody solution and 10-20 μl of the labeled hapten solution were combined and varying amounts of 10^-^5 M solution of N-epsilon-dinitrophenyllysine in water added, the maximum being 14 μl.
By using appropriate standards, the ESR signal intensity may be related to the concentration of the N-epsilon dinitrophenyllysine in solution. Therefore, by taking an unknown solution suspected of having such a hapten, and introducing a standardized amount of the antibody-hapten complex, one can rapidly determine the concentration of the N-epsilon dinitrophenyllysine in solution.

phenobarbital antibody = assay: Phenobarbital spin immunoassay; settings: 1 × 10^-5 M (2.2-2.6 μg/ml), pH 7, 10 µM
secobarbital antibody = assay: Secobarbital (seconal) spin immunoassay
Amphetamine antibody = assay: Amphetamine spin immunoassay; assay type: binding, rabbit; settings: for mobilization with urine of individuals who indicated taking cross reacting substances: six of 100 urines, background 10% or less
Description: Two plastic cups were employed. In one cup was 2.5 μl of 0.2 M sodium dichromate. In the other cup was 5.0 μl of antibody solution. The sample was transferred employing a 25 μl Oxford Sampler and introduced into the cup containing dichromate. The dichromate sample solution was agitated by means of the sample, drawn up with the sampler and introduced into the cup containing antibody, without touching the antibody. To the resulting solution was then added 5 μl of spin label, the sample was then stirred with an ESR capillary tube, the sample allowed to rise into the capillary and the spectrum read.

antibody (cocaine assay) = assay type: binding, rabbit; settings: read from graph
morphine antibody = assay: Detection of morphine and its metabolite in urine by spin immunoassay (ESR); assay type: binding, rabbit
morphine antibodies = assay: Morphine spin immunoassay (ESR), specificity; settings: spin label of Example 2.1
[3] = test system: antibody (methadone assay); assay type: binding, rabbit; settings: 3.4 μg/ml
Description: The spin immunoassay was carried out similarly to the prior assays. Two plastic cups were employed, one cup containing 5 μl of 0.2 molar sodium dichromate and the second 5 μl of borate buffered antibody at pH 8. […] To the dichromate is added 50 μl of sample and a 20 μl aliquot is transferred from the first cup to the second cup containing the antibody solution.
Fifty-five urine samples were tested according to the above procedure.

[4] = urine samples 6-10 of drug takers, percentage of maximum increase with high concentrations of morphine, drug taken

Question: Which “binding of the free radical labeled morphine to the receptor (ESR signals)” value [1] does the source give for CN1CC[C@]23c4c5ccc(OCC(=O)NC6CC(C)(C)N([O])C(C)(C)C6)c4O[C@H]2[C@@H](O)C=C[C@H]3[C@H]1C5 [Example 2.2, 4-[2'(O^3" Morphino)acetamido]-2,2,6,6-tetramethylpiperidino-1-oxyl] here?
Answer: Its value is “broad ESR signals indicating the binding of the free radical labeled morphine to the receptor”.

Question: With COC(=O)[C@H]1[C@@H](OC(=O)c2ccc(NC(=O)C3CC(C)(C)N([O])C3(C)C)cc2)C[C@@H]2CC[C@H]1N2C (some centres unmarked) [Example 7.1] as the compound, how does the “binding constant on storage of the spin label” value [2] read?
Answer: The value was “the binding constant diminished with time unless the spin label was stored at pH 5 in the absence of any buffer”.

Question: For NC(CCCCNc1ccc([N+](=O)[O-])cc1[N+](=O)[O-])C(=O)O (centres unmarked) [N-epsilon-dinitrophenyllysine], which “ESR signal on addition to antibodies-labeled hapten complex” value (dinitrophenyl antibodies) is on record?
Answer: The value was “an increase in the ESR signal was observed”.

Question: What does the source list for CCC1(CCC(C)C)C(=O)NC(=O)NC1=O [amobarbital]?
Answer: % Mobilization (phenobarbital antibody): 16%; minimum concentration that could be detected (secobarbital antibody): 2.5 µg/mL

Question: With CC(N)Cc1ccccc1 (centres unmarked) [amphetamine.HCl] as the compound, how does the “% Mobilization” value (Amphetamine antibody; 1.7 μg/ml (1.1 × 10^-5 M)) read?
Answer: Its value is 26%.

Question: Which results are given for CC(N)Cc1ccccc1 (centres unmarked) [amphetamine]?
Answer: recognition by the amphetamine antibody (Amphetamine antibody): recognizes; peak ratio (amphetamine/saline) (Amphetamine antibody; 10^-3 molar amphetamine, loading ratio 0.95): 5; mobilization with urine of individuals who indicated taking cross reacting substances (Amphetamine antibody): greater than 14%

Question: For CC(Cc1ccccc1)N(C)Cc1ccccc1 (centres unmarked) [benzophetamine.HCl], which “% Mobilization” value (Amphetamine antibody; 2.5 μg/ml (0.8-2.1 × 10^-5 M)) is on record?
Answer: Its value is 12%.

Question: With COC(=O)[C@H]1[C@@H](OC(=O)c2ccccc2)C[C@@H]2CC[C@H]1N2C [cocaine] as the compound, how does the “% Mobilization” value (antibody (cocaine assay); 1 μg/ml) read?
Answer: The value was 49%.

Question: What about the “% Mobilization” value (antibody (cocaine assay); 10 μg/ml) of the same compound?
Answer: Its value is 80%.

Question: What does the source list for COc1ccc2c3c1O[C@H]1[C@@H](O)C=C[C@H]4[C@@H](C2)N(C)CC[C@@]341 [codeine]?
Answer: % Signal Increase (morphine antibody; [4]): 75% and 62%; detection by the morphine assay (morphine antibodies): detected by the same procedure

Question: With COc1ccc2c(c1)[C@]13CCCC[C@@H]1[C@H](C2)N(C)CC3 [dextromethorphan] as the compound, how does the “% Mobilization” value (antibody (cocaine assay); 10 μg/ml) read?
Answer: Its value is 33%.

Question: Which “% Mobilization” value (phenobarbital antibody) does the source give for CCC1(c2ccccc2)CCC(=O)NC1=O (centres unmarked) [glutethimide] here?
Answer: Its value is 0.5%.

Question: For CC(=O)Oc1ccc2c3c1O[C@H]1[C@@H](OC(C)=O)C=C[C@H]4[C@@H](C2)N(C)CC[C@@]341 [heroin], which “% Signal Increase” value (morphine antibody; urine of single heroin user, day 2, drug taken on second and fifth days) is on record?
Answer: The value was 57%.

Question: What about the “% Signal Increase” value (morphine antibody; urine of single heroin user, day 3, drug taken on second and fifth days) of the same compound?
Answer: Its value is 32%.

Question: And the “% Signal Increase” value (morphine antibody; urine of single heroin user, day 4, drug taken on second and fifth days)?
Answer: Its value is 26%.

Question: And the “% Signal Increase” value (morphine antibody; urine of single heroin user, day 5, drug taken on second and fifth days)?
Answer: Its value is 47%.

Question: And the “% Signal Increase” value (morphine antibody; urine of single heroin user, day 6, drug taken on second and fifth days)?
Answer: The value was 26%.

Question: What about the “% Signal Increase” value (morphine antibody; urine of single heroin user, day 7, drug taken on second and fifth days) of the same compound?
Answer: Its value is 16%.

Question: What about the “% Signal Increase” value (morphine antibody; urine of single heroin user, day 8, drug taken on second and fifth days) of the same compound?
Answer: The value was 8%.

Question: What about the “% Signal Increase” value (morphine antibody; urine of single heroin user, day 9, drug taken on second and fifth days) of the same compound?
Answer: The value was 40%.

Question: And the “% Signal Increase” value (morphine antibody; [4])?
Answer: Its value is 81% and 100%.

Question: For CNC(C)(C)Cc1ccccc1 [mephentermine.H2 SO4], which “% Mobilization” value (Amphetamine antibody; 2.5 μg/ml (0.8-2.1 × 10^-5 M)) is on record?
Answer: Its value is 28%.

Question: What does the source list for CNC(C)(C)Cc1ccccc1 [mephentermine]?
Answer: recognition by the amphetamine antibody (Amphetamine antibody): recognizes; % Mobilization (antibody (cocaine assay); 10 μg/ml): 35%

Question: Which “% Mobilization” value (phenobarbital antibody) does the source give for CCC1(c2ccccc2)C(=O)NC(=O)N(C)C1=O (centres unmarked) [mephobarbital] here?
Answer: The value was 32%.

Question: For COc1cc(CCN)cc(OC)c1OC [mescaline], which “mobilization with urine of individuals who indicated taking cross reacting substances” value (Amphetamine antibody) is on record?
Answer: The value was “greater than 14%”.

Question: With CCC(=O)C(CC(C)N(C)C)(c1ccccc1)c1ccccc1 (centres unmarked) [methadone] as the compound, how does the “detection by the morphine assay” value (morphine antibodies) read?
Answer: Its value is “insensitive”.

Question: With CNC(C)Cc1ccccc1 (centres unmarked) [methamphetamine.HCl] as the compound, how does the “% Mobilization” value (Amphetamine antibody; 2.5 μg/ml (0.8-2.1 × 10^-5 M)) read?
Answer: The value was 29%.

Question: For CN[C@@H](C)Cc1ccccc1 [methamphetamine], which “recognition by the amphetamine antibody” value (Amphetamine antibody) is on record?
Answer: Its value is “recognizes”.

Question: For CCC1(CC)C(=O)NC(=O)N(C)C1=O [metharbital], which “% Mobilization” value (phenobarbital antibody) is on record?
Answer: The value was 6%.

Question: For CN1CC[C@]23c4c5ccc(O[C@@H]6O[C@H](C(=O)O)[C@@H](O)[C@H](O)[C@H]6O)c4O[C@H]2[C@@H](O)C=C[C@H]3[C@H]1C5 [morphine-O^3 -glucuronide], which “detection by the morphine assay” value (morphine antibodies) is on record?
Answer: The value was “can also be detected”.

Question: For C=CCN1CC[C@]23c4c5ccc(O)c4O[C@H]2[C@@H](O)C=C[C@H]3[C@H]1C5 [nalorphine], which “detection by the morphine assay” value (morphine antibodies) is on record?
Answer: The value was “can also be detected”.

Question: Which “minimum concentration that could be detected” value (secobarbital antibody) does the source give for CCCC(C)C1(CC)C(=O)NC(=O)NC1=O (centres unmarked) [pentobarbital] here?
Answer: The value was 2 µg/mL.

Question: With NCCc1ccccc1 [phenethylamine] as the compound, how does the “% Mobilization” value (Amphetamine antibody; 2.5 μg/ml (0.8-2.1 × 10^-5 M)) read?
Answer: Its value is 26%.

Question: Which “% Mobilization” value (phenobarbital antibody) does the source give for CCC1(c2ccccc2)C(=O)NC(=O)NC1=O [phenobarbital] here?
Answer: Its value is 25%.

Question: With CC(N)C(O)c1ccccc1 (centres unmarked) [phenylpropanolamine.HCl] as the compound, how does the “% Mobilization” value (Amphetamine antibody; 2.5 μg/ml (0.8-2.1 × 10^-5 M)) read?
Answer: Its value is 13%.

Question: Which results are given for CC(N)C(O)c1ccccc1 (centres unmarked) [phenylpropanolamine]?
Answer: mobilization with urine of individuals who indicated taking cross reacting substances (Amphetamine antibody): greater than 14%; % Mobilization (antibody (cocaine assay); 10 μg/ml): 26%

Question: For CNC(C)CC1CCCCC1 (centres unmarked) [propylhexedrine.HCl], which “% Mobilization” value (Amphetamine antibody; 250 μg/ml (131 × 10^-5 M)) is on record?
Answer: The value was 71%.

Question: With CN[C@@H](C)[C@@H](O)c1ccccc1 [pseudophedrine] as the compound, how does the “mobilization with urine of individuals who indicated taking cross reacting substances” value (Amphetamine antibody) read?
Answer: Its value is “greater than 14%”.

Question: Which results are given for C=CCC1(C(C)CCC)C(=O)NC(=O)NC1=O (centres unmarked) [secobarbital]?
Answer: % Mobilization (phenobarbital antibody): 7%; sensitivity of the assay (secobarbital antibody): the greatest sensitivity is achieved with secobarbital

Question: Which “% Mobilization” value (phenobarbital antibody) does the source give for CCCC(C)C1(CC)C(=O)NC(=O)NC1=O (centres unmarked) [sodium pentobarbital] here?
Answer: Its value is 10%.

Question: Which “minimum concentration that could be detected” value (secobarbital antibody) does the source give for CCC1(c2ccccc2)C(=O)NC(=O)NC1=O [sodium phenobarbital] here?
Answer: The value was 40 µg/mL.

Question: Which “minimum concentration that could be detected” value (secobarbital antibody) does the source give for CCCC(C)C1(CC)C(=O)NC(=S)NC1=O (centres unmarked) [thiopental sodium] here?
Answer: The value was 3.5 µg/mL.

Question: With CN(C)CCCN1c2ccccc2Sc2ccc(Cl)cc21 [thorazine] as the compound, how does the “% Mobilization” value [3] read?
Answer: The value was 9%.
